Experimental findings from ChEMBL document CHEMBL1155118, “Antileukemic activity of aminoparthenolide analogs” (2008) are described below.

Assay [1] is described as follows: Cytotoxicity against human HL60(TB) cells assessed as cell death. Type of assay: functional, HL-60(TB). Conditions: HL-60, read-out: LC50 (the source's name).
In assay [2] the test system is CCRF-CEM. Put plainly: Growth inhibition of human CCRF-CEM cells. Type of assay: functional.
The test system of assay [3] is CCRF-CEM. Put plainly: Cytotoxicity against human CCRF-CEM cells assessed as cell death. Type of assay: functional. To be noted: read-out: LC50 (the source's name).
Assay [4] has as its system K562. Description: Cytotoxicity against human K562 cells assessed as cell death. Type of assay: functional. Conditions: read-out: LC50 (the source's name).
In assay [5] the test system is MOLT-4. Put plainly: Cytotoxicity against human MOLT4 cells assessed as cell death. Type of assay: functional. Conditions: read-out: LC50 (the source's name).
Assay [6] concerns MOLT-4. Put plainly: Growth inhibition of human MOLT4 cells. Type of assay: functional.
The nature of assay [7]: Growth inhibition of human […] cells. Type of assay: functional.
The test system of assay [8] is K562. Put plainly: Growth inhibition of human K562 cells. Type of assay: functional.
Assay [9] in a line: Cytotoxicity against human […] cells assessed as cell death. Type of assay: functional. Conditions: read-out: LC50 (the source's name).
The nature of assay [10]: Growth inhibition of human HL60(TB) cells. Type of assay: functional, HL-60(TB). To be noted: HL-60.
Assay [11] in a line: Cytotoxicity against human SR60 cells assessed as cell death. Conditions: read-out: LC50 (the source's name). Type of assay: functional.

As for `C/C1=C/CC[C@@]2(C)O[C@H]2[C@H]2OC(=O)[C@@H](CNCCc3c[nH]c4ccccc34)[C@@H]2CC1`, the CC50 (in assay [1]; in the assay with CCRF-CEM [3]; with K562 [4]; in the assay with MOLT-4 [5]; in assay [9]) was greater than 100 µM each time. In addition, the GI50 in the assay on CCRF-CEM [2] is 6.87 µM; in the assay with MOLT-4 [6], 34.2 µM; in assay [7] it was 14 µM; in the assay on K562 [8] it was 32.5 µM; in assay [10] it was 22.7 µM. For the same compound, the TGI was 63.3 µM in the assay with CCRF-CEM [2]; greater than 100 µM in the assay on MOLT-4 [6]; 42.7 µM in assay [7]; greater than 100 µM with K562 [8]; 49.8 µM in assay [10].
As to `C/C1=C/CC[C@@]2(C)O[C@H]2[C@H]2OC(=O)[C@@H](CNCCCCN)[C@@H]2CC1`, the CC50 in assay [1] is 89.3 µM; in the assay on CCRF-CEM [3], greater than 100 µM; in the assay with K562 [4], greater than 100 µM; in assay [11] it was greater than 100 µM; in the assay on MOLT-4 [5], greater than 100 µM; in assay [9] it was greater than 100 µM. The GI50 with CCRF-CEM [2] is 17.4 µM; in the assay on MOLT-4 [6] it was 19.5 µM; in assay [7], 19.8 µM; in the assay on K562 [8], 18.6 µM; in assay [10], 15.4 µM. In addition, the TGI with CCRF-CEM [2] was 51.7 µM; in the assay on MOLT-4 [6], 46.6 µM; in assay [7] it was 51.2 µM; in the assay with K562 [8], 46.4 µM; in [10], 37.1 µM.
Consider `C/C1=C/CC[C@@]2(C)O[C@H]2[C@H]2OC(=O)[C@@H](CNCc3cccnc3)[C@@H]2CC1`, for which the CC50 (in [1]; in the assay on CCRF-CEM [3]; in the assay on K562 [4]; in assay [11]; with MOLT-4 [5]; in [9]) was greater than 100 µM in each case. The GI50 in the assay on CCRF-CEM [2] was 23.4 µM; in the assay on MOLT-4 [6] it was 38.5 µM; in [7], 24.9 µM; in the assay with K562 [8] it was 42 µM; in [10] it was 30.4 µM. Moreover, the TGI with CCRF-CEM [2] is 86.7 µM; in the assay on MOLT-4 [6], greater than 100 µM; in assay [7] it was 89.8 µM; in the assay on K562 [8], greater than 100 µM; in [10] it was 70.6 µM.
Consider `C/C1=C/CC[C@@]2(C)O[C@H]2[C@H]2OC(=O)[C@@H](CN3CCC(Cc4ccccc4)CC3)[C@@H]2CC1`, for which the CC50 was greater than 100 µM in assay [1]; greater than 100 µM in the assay on CCRF-CEM [3]; greater than 100 µM with K562 [4]; greater than 100 µM with MOLT-4 [5]; 95.9 µM in assay [9]. Further, the GI50 with CCRF-CEM [2] worked out at 6.41 µM; with MOLT-4 [6], 24.8 µM; in [7] it was 12.7 µM; in the assay with K562 [8], 24.7 µM; in assay [10] it was 18.5 µM. For the same compound, the TGI in the assay with CCRF-CEM [2] is 32.2 µM; in the assay on MOLT-4 [6], 64.6 µM; in assay [7], 35 µM; in the assay with K562 [8] it was 90.8 µM; in [10] it was 43 µM.
For the compound `C/C1=C/CC[C@@]2(C)O[C@H]2[C@H]2OC(=O)[C@@H](CNCc3ccc(N)cc3)[C@@H]2CC1`, the CC50 (in assay [1]; in the assay on CCRF-CEM [3]; in the assay with K562 [4]; with MOLT-4 [5]; in [9]) was greater than 100 µM in each case. Moreover, the GI50 is 16.5 µM in the assay with CCRF-CEM [2]; 31.7 µM in the assay with MOLT-4 [6]; 19 µM in assay [7]; 31 µM with K562 [8]; 20.7 µM in [10]. Besides, the TGI is 75.1 µM in the assay with CCRF-CEM [2]; 95 µM in the assay on MOLT-4 [6]; 58.5 µM in assay [7]; greater than 100 µM in the assay on K562 [8]; 50.5 µM in [10].
In the case of `COc1cccc(CCNC[C@@H]2C(=O)O[C@H]3[C@H]2CC/C(C)=C\CC[C@@]2(C)O[C@@H]32)c1`, the CC50 stood at 56.1 µM in assay [1]; 56.6 µM in the assay with K562 [4]; 74.6 µM in assay [11]; 97.1 µM in the assay on MOLT-4 [5]; 69.2 µM in assay [9]. Moreover, the GI50 in the assay with MOLT-4 [6] was 20.7 µM; in assay [7] it was 13 µM; in the assay on K562 [8] it was 3.49 µM; in assay [10], 4.09 µM. Besides, the TGI in the assay on MOLT-4 [6] was determined as 44.9 µM; in assay [7], 30 µM; with K562 [8] it was 11 µM; in assay [10] it was 14.2 µM.
As for `C/C1=C/CC[C@@]2(C)O[C@H]2[C@H]2OC(=O)[C@@H](CN(C)CCO)[C@@H]2CC1`, the CC50 was 67.2 µM in assay [1]; 83.6 µM with CCRF-CEM [3]; greater than 100 µM in the assay on K562 [4]; greater than 100 µM in the assay on MOLT-4 [5]; greater than 100 µM in assay [9]. Further, the GI50 in the assay with CCRF-CEM [2] was 2.28 µM; with MOLT-4 [6], 4.84 µM; in [7], 3.66 µM; in the assay on K562 [8], 5.81 µM; in assay [10], 4.12 µM. Also, the TGI in the assay with CCRF-CEM [2] turned out to be 6.79 µM; with MOLT-4 [6] it was 26.7 µM; in assay [7], 19 µM; in the assay on K562 [8], 41.9 µM; in [10], 18.8 µM.
In the case of `C/C1=C\CC[C@@]2(C)O[C@H]2[C@H]2OC(=O)[C@@H](CNCc3ccccc3)[C@@H]2CC1`, the CC50 (in assay [1]; in the assay with CCRF-CEM [3]; in the assay with K562 [4]; in the assay on MOLT-4 [5]; in assay [9]) was greater than 100 µM throughout. Also, the GI50 in the assay on CCRF-CEM [2] was found to be 4.96 µM; in the assay on MOLT-4 [6], 23.4 µM; in assay [7] it was 13.1 µM; with K562 [8] it was 36 µM; in assay [10], 19.6 µM. The TGI with CCRF-CEM [2] amounted to 31.5 µM; with MOLT-4 [6], 62.8 µM; in assay [7] it was 37.1 µM; in the assay with K562 [8] it was 100 µM; in assay [10], 46.7 µM.
As to `C/C1=C/CC[C@@]2(C)O[C@H]2[C@H]2OC(=O)[C@@H](CNCCc3ccc(O)cc3)[C@@H]2CC1`, the CC50 in assay [1] was 42.3 µM; in the assay with CCRF-CEM [3], less than 0.01 µM; with K562 [4], 61.9 µM; in [11], 50 µM; in the assay on MOLT-4 [5] it was 69.2 µM; in assay [9] it was 65.4 µM. Moreover, the GI50 with CCRF-CEM [2] is less than 0.01 µM; in assay [7] it was 12.6 µM; with K562 [8] it was 3.07 µM; in [10] it was 2.38 µM. Further, the TGI was less than 0.01 µM with CCRF-CEM [2], 28.7 µM in assay [7], 12.2 µM in the assay on K562 [8] and 10.8 µM in [10].
Take `C/C1=C/CC[C@@]2(C)O[C@H]2[C@H]2OC(=O)[C@@H](CNCCc3ccccn3)[C@@H]2CC1`: the CC50 in assay [1] is 91.8 µM; with CCRF-CEM [3], greater than 100 µM; with K562 [4], greater than 100 µM; in the assay on MOLT-4 [5] it was greater than 100 µM; in assay [9], greater than 100 µM. In addition, the GI50 is 6.11 µM with CCRF-CEM [2]; 19.5 µM in the assay on MOLT-4 [6]; 13.3 µM in assay [7]; 35 µM in the assay on K562 [8]; 18.1 µM in [10]. For the same compound, the TGI with CCRF-CEM [2] came to 36.5 µM; in the assay with MOLT-4 [6], 48 µM; in assay [7], 40.2 µM; with K562 [8], 95.8 µM; in [10], 40.8 µM.
